≈ marks a conversion by molar mass, not a printed value.
Assay: not given
Conditions: mouse, in vivo, po, 30 mg/kg, 0.75 h
For `CCNS(=O)(=O)c1ccccc1Nc1nc(Nc2ccc(N3CCC(N4CCN(C)CC4)CC3)c(OC)c2)ncc1NC(=O)c1cc(OC)cc(OC)c1`, the CL was > 600 mL/min/kg.
In the case of `COc1cc(CCc2cnc(Nc3ccc(N4CCC(N5CCN(C)CC5)CC4)c(OC)c3)nc2)cc(OC)c1`, the CL is reported as 227 mL/min/kg.

Assay: cells
Conditions: Homo sapiens, NIH3T3, 120 h
`CCNS(=O)(=O)c1ccccc1Nc1nc(Nc2ccc(N3CCC(N4CCN(C)CC4)CC3)c(OC)c2)ncc1CCc1cc(OC)cc(OC)c1` showed an IC50 of 34 nM.
`CCNS(=O)(=O)c1ccccc1Nc1nc(Nc2ccc(N3CCC(N4CCN(C)CC4)CC3)c(OC)c2)ncc1NC(=O)c1cc(OC)cc(OC)c1` showed an IC50 of 99 nM.

Assay: in vivo
Conditions: ICR, mouse, plasma, po, 30 mg/kg
With `CCNS(=O)(=O)c1ccccc1Nc1nc(Nc2ccc(N3CCC(N4CCN(C)CC4)CC3)c(OC)c2)ncc1NC(=O)c1cc(OC)cc(OC)c1` the concentration at 6 h was 98.2 nM.
For `COc1cc(CCc2cnc(Nc3ccc(N4CCC(N5CCN(C)CC5)CC4)c(OC)c3)nc2)cc(OC)c1`, the concentration at 6 h was 1120 nM.

Assay: in vitro
Conditions: PAMPA, pH 7.4
`CCNS(=O)(=O)c1ccccc1Nc1nc(Nc2ccc(N3CCC(N4CCN(C)CC4)CC3)c(OC)c2)ncc1CCc1cc(OC)cc(OC)c1` showed a Papp at 2 h of 1.8 ×10⁻⁶ cm/s.
`CCNS(=O)(=O)c1ccccc1Nc1nc(Nc2ccc(N3CCC(N4CCN(C)CC4)CC3)c(OC)c2)ncc1NC(=O)c1cc(OC)cc(OC)c1` showed a Papp at 2 h of 1.4 ×10⁻⁶ cm/s.
`COc1cc(COc2cnc(Nc3ccc(N4CCC(N5CCN(C)CC5)CC4)c(OC)c3)nc2)cc(OC)c1` gave a Papp at 2 h of 18.5 ×10⁻⁶ cm/s.
For `COc1cc(Nc2ncc(CCc3c(F)c(OC)cc(OC)c3Cl)cn2)ccc1N1CCC(N2CCN(C)CC2)CC1`, the Papp at 2 h was 19.4 ×10⁻⁶ cm/s.
With `COc1cc(Nc2ncc(CCc3c(Cl)c(OC)cc(OC)c3Cl)cn2)ccc1N1CCC(N2CCN(C)CC2)CC1` the Papp at 2 h was 18.7 ×10⁻⁶ cm/s.
`COc1cc(CCc2cnc(Nc3ccc(N4CCC(N5CCN(C)CC5)CC4)c(OC)c3)nc2)cc(OC)c1` gave a Papp at 2 h of 15.1 ×10⁻⁶ cm/s.
In the case of `COc1cc(OC)cc(C(=O)Nc2cnc(Nc3ccc(N4CCC(N5CCN(C)CC5)CC4)c(OC)c3)nc2NCCS(C)(=O)=O)c1`, the Papp at 2 h is reported as < 0.2 ×10⁻⁶ cm/s.
In the case of `COc1cc(OC)cc(OCc2cnc(Nc3ccc(N4CCC(N5CCN(C)CC5)CC4)c(OC)c3)nc2)c1`, the Papp at 2 h is reported as > 30 ×10⁻⁶ cm/s.
`COc1cc(CNc2cnc(Nc3ccc(N4CCC(N5CCN(C)CC5)CC4)c(OC)c3)nc2)cc(OC)c1` showed a Papp at 2 h of 18.1 ×10⁻⁶ cm/s.
`COc1cc(OC)cc(C(=O)N(C)c2cnc(Nc3ccc(N4CCC(N5CCN(C)CC5)CC4)c(OC)c3)nc2)c1` gave a Papp at 2 h of 3.7 ×10⁻⁶ cm/s.
In the case of `COc1cc(CCc2cnc(Nc3ccc(N4CCC(N5CCN(C)CC5)CC4)c(OC)c3)nc2)c(F)c(OC)c1`, the Papp at 2 h is reported as 24.4 ×10⁻⁶ cm/s.
Work on `COc1cc(OC)cc(C(=O)Nc2cnc(Nc3ccc(N4CCC(N5CCN(C)CC5)CC4)c(OC)c3)nc2Nc2ccccc2)c1` yielded a Papp at 2 h of 0.4 ×10⁻⁶ cm/s.
With `COc1cc(OC)cc(C(=O)Nc2cnc(Nc3ccc(N4CCC(N5CCN(C)CC5)CC4)c(OC)c3)nc2)c1` the Papp at 2 h was < 2.9 ×10⁻⁶ cm/s.

Assay: physchem
Conditions: JP2 fluid, pH 6.8
For `CCNS(=O)(=O)c1ccccc1Nc1nc(Nc2ccc(N3CCC(N4CCN(C)CC4)CC3)c(OC)c2)ncc1CCc1cc(OC)cc(OC)c1`, the solubility at 20 h, 10000 µM was < 1 µM.
In the case of `CCNS(=O)(=O)c1ccccc1Nc1nc(Nc2ccc(N3CCC(N4CCN(C)CC4)CC3)c(OC)c2)ncc1NC(=O)c1cc(OC)cc(OC)c1`, the solubility at 20 h, 10000 µM is reported as < 1 µM.
In the case of `COc1cc(COc2cnc(Nc3ccc(N4CCC(N5CCN(C)CC5)CC4)c(OC)c3)nc2)cc(OC)c1`, the solubility at 20 h, 10000 µM is reported as ≥ 100 µM.
In the case of `COc1cc(Nc2ncc(CCc3c(F)c(OC)cc(OC)c3Cl)cn2)ccc1N1CCC(N2CCN(C)CC2)CC1`, the solubility at 20 h, 10000 µM is reported as 12 µM (≈ 7.19 µg/mL).
Compound `COc1cc(Nc2ncc(CCc3c(Cl)c(OC)cc(OC)c3Cl)cn2)ccc1N1CCC(N2CCN(C)CC2)CC1` has a solubility at 20 h, 10000 µM of 5 µM (≈ 3.08 µg/mL).
In the case of `COc1cc(CCc2cnc(Nc3ccc(N4CCC(N5CCN(C)CC5)CC4)c(OC)c3)nc2)cc(OC)c1`, the solubility at 20 h, 10000 µM is reported as ≥ 100 µM.
In the case of `COc1cc(OC)cc(C(=O)Nc2cnc(Nc3ccc(N4CCC(N5CCN(C)CC5)CC4)c(OC)c3)nc2NCCS(C)(=O)=O)c1`, the solubility at 20 h, 10000 µM is reported as ≥ 100 µM.
For `COc1cc(OC)cc(OCc2cnc(Nc3ccc(N4CCC(N5CCN(C)CC5)CC4)c(OC)c3)nc2)c1`, the solubility at 20 h, 10000 µM was ≥ 100 µM.
In the case of `COc1cc(CNc2cnc(Nc3ccc(N4CCC(N5CCN(C)CC5)CC4)c(OC)c3)nc2)cc(OC)c1`, the solubility at 20 h, 10000 µM is reported as ≥ 100 µM.
For `COc1cc(OC)cc(C(=O)N(C)c2cnc(Nc3ccc(N4CCC(N5CCN(C)CC5)CC4)c(OC)c3)nc2)c1`, the solubility at 20 h, 10000 µM was ≥ 100 µM.
For `COc1cc(CCc2cnc(Nc3ccc(N4CCC(N5CCN(C)CC5)CC4)c(OC)c3)nc2)c(F)c(OC)c1`, the solubility at 20 h, 10000 µM was ≥ 100 µM.
`COc1cc(OC)cc(C(=O)Nc2cnc(Nc3ccc(N4CCC(N5CCN(C)CC5)CC4)c(OC)c3)nc2Nc2ccccc2)c1` showed a solubility at 20 h, 10000 µM of 36 µM (≈ 23.5 µg/mL).
For `COc1cc(OC)cc(C(=O)Nc2cnc(Nc3ccc(N4CCC(N5CCN(C)CC5)CC4)c(OC)c3)nc2)c1`, the solubility at 20 h, 10000 µM was ≥ 100 µM.

Assay: physchem
Conditions: buffer, pH 7.4
For `CCNS(=O)(=O)c1ccccc1Nc1nc(Nc2ccc(N3CCC(N4CCN(C)CC4)CC3)c(OC)c2)ncc1CCc1cc(OC)cc(OC)c1`, the logD was > 4.8.
In the case of `CCNS(=O)(=O)c1ccccc1Nc1nc(Nc2ccc(N3CCC(N4CCN(C)CC4)CC3)c(OC)c2)ncc1NC(=O)c1cc(OC)cc(OC)c1`, the logD is reported as > 3.9.
Work on `COc1cc(COc2cnc(Nc3ccc(N4CCC(N5CCN(C)CC5)CC4)c(OC)c3)nc2)cc(OC)c1` yielded a logD of 3.2.
For `COc1cc(Nc2ncc(CCc3c(F)c(OC)cc(OC)c3Cl)cn2)ccc1N1CCC(N2CCN(C)CC2)CC1`, the logD was 3.5.
`COc1cc(Nc2ncc(CCc3c(Cl)c(OC)cc(OC)c3Cl)cn2)ccc1N1CCC(N2CCN(C)CC2)CC1` showed a logD of 4.4.
With `COc1cc(CCc2cnc(Nc3ccc(N4CCC(N5CCN(C)CC5)CC4)c(OC)c3)nc2)cc(OC)c1` the logD was 3.5.
Compound `COc1cc(OC)cc(C(=O)Nc2cnc(Nc3ccc(N4CCC(N5CCN(C)CC5)CC4)c(OC)c3)nc2NCCS(C)(=O)=O)c1` has a logD of 1.8.
`COc1cc(OC)cc(OCc2cnc(Nc3ccc(N4CCC(N5CCN(C)CC5)CC4)c(OC)c3)nc2)c1` showed a logD of 3.4.
In the case of `COc1cc(CNc2cnc(Nc3ccc(N4CCC(N5CCN(C)CC5)CC4)c(OC)c3)nc2)cc(OC)c1`, the logD is reported as 2.9.
`COc1cc(OC)cc(C(=O)N(C)c2cnc(Nc3ccc(N4CCC(N5CCN(C)CC5)CC4)c(OC)c3)nc2)c1` gave a logD of 1.8.
With `COc1cc(CCc2cnc(Nc3ccc(N4CCC(N5CCN(C)CC5)CC4)c(OC)c3)nc2)c(F)c(OC)c1` the logD was 3.2.
For `COc1cc(OC)cc(C(=O)Nc2cnc(Nc3ccc(N4CCC(N5CCN(C)CC5)CC4)c(OC)c3)nc2Nc2ccccc2)c1`, the logD was 3.7.
`COc1cc(OC)cc(C(=O)Nc2cnc(Nc3ccc(N4CCC(N5CCN(C)CC5)CC4)c(OC)c3)nc2)c1` showed a logD of 2.8.

Assay: animal or person
Conditions: Mus musculus, Balb/c, NIH3T3, po, 6 h, read-out: INH
For `COc1cc(CCc2cnc(Nc3ccc(N4CCC(N5CCN(C)CC5)CC4)c(OC)c3)nc2)cc(OC)c1`, the inhibition in vivo at 30 mg/kg was 21%.

Reference: ChEMBL document CHEMBL4715898, “Synthesis and structure-activity relationships of pyrimidine derivatives as potent and orally active FGFR3 inhibitors with both increased systemic exposure and enhanced in vitro potency” (Bioorg Med Chem, 2021)
